This is an account of results in patent US20050148514A1, “Method and composition for treatment of angiogenesis” (priority 2003, published 2005).

Where no end group is shown, it is not given here. The star is where a group is joined. Acm = CC(=O)NC*

Test [1] deals with ERK. The test can be described thus: Growth factor-induced ERK phosphorylation in HUVEC (western blot). The class given is cell-based, Human. Particulars: serum-starved HUVEC, 300 μg/ml for 24 h, then VEGF. As to the method: (§1) Cell culture. Human umbilical vein endothelial cells (HUVEC) and pulmonary aortic smooth muscle cells (PASMC) were obtained from Clonetics and maintained in endothelial cell basal medium-2, (EBM-2; Clonetics) and smooth muscle medium-2 (SmGM-2; Clonetics), respectively. Cells were cultured at 37° C. under a humidified atmosphere containing 5% CO2. For experimental purposes, cells were plated in 8 100-mm plastic dishes at 5,000 cells/cm^2 and were grown to confluence before overnight serum starvation. Cells were treated with vehicle or with a PCK3145 derivative diluted in 0.1 N NaOH, and stimulated with 50 ng/ml VEGF, PDGF or with 1 μM S1P.
Immunoprecipitation and immunoblotting procedures. After treatment, cells were washed once with phosphate-buffered saline (PBS) containing 1 mM sodium orthovanadate and were incubated in the same medium for 1 h at 4° C. The cells were solubilized on ice in lysis buffer (150 mM NaCl, 10 mM Tris-HCl, pH 7.4, 1 mM EDTA, 1 mM EGTA, 0.5% Nonidet P-40, 1% Triton X-100) containing 1 mM sodium orthovanadate. The cells were then scraped from the culture dishes and the resulting lysates were clarified by centrifugation at 10,000 g for 10 min. Protein concentrations were determined using the micro bicinchoninic acid method. For immunoprecipitation studies, lysates were clarified by a 1 h incubation at 4° C. with a mixture of Protein A/Protein G Sepharose beads. After removal of the Sepharose beads by low-speed centrifugation, identical amounts of protein (200 μg) from each sample were transferred to fresh tubes and incubated in lysis buffer overnight at 4° C. in the presence of 2 μg/ml of specific antibodies. Immunocomplexes were collected by incubating the mixture with 25 μl (50% suspension) of Protein A—(rabbit primary antibody) or Protein G—(mouse primary antibody) Sepharose beads, for 2 h. Nonspecifically-bound material was removed by washing the beads three times in 1 ml of lysis buffer containing 1 mM sodium orthovanadate, and bound material was solubilized in 25 μl of two-fold concentrated Laemmli sample buffer, boiled 5 min, and resolved by SDS-PAGE. The proteins were transferred onto polyvinylidene difluoride (PVDF) membranes, blocked 1 h at room temperature with Tris-buffered saline/Tween 20 (147 mM NaCl, 20 mM Tris/HCl, pH 7.5, and 0.1% Tween 20) containing 2% bovine serum albumin and incubated overnight at 4° C. with primary antibody.
VEGF is a strong activator of ERKs (Extracellular-signal-Regulated protein Kinases) 1 and 2 via VEGF receptor 2. In order to test the ability of the PCK3145 derivative in potentially antagonizing VEGF-mediated ERK phosphorylation, serum-starved quiescent endothelial cells (HUVEC) were incubated with vehicle (phosphate-buffered saline (PBS) pH 7.4) or PCK3145 derivative (300 μg/ml) for 24 h and then stimulated with VEGF, bFGF (basic Fibroblast Growth Factor) or S1P (sphingosine-1-phosphate). Cells were washed with PBS containing NaF/Na3VO4 and incubated in the same medium buffer for 1 h at 4° C. The cells were scraped from the culture dishes and the resulting lysates clarified by centrifugation. Western blotting and immunodetection using anti-phosphoERK and anti-ERK antibodies was then performed.

Another test concerns the target T1, VEGFR-2 (Homo sapiens, UniProt P35968).
T1 construct: host or cells: HUVEC
The test can be described thus: VEGF-induced VEGFR-2 phosphorylation in HUVEC (immunoprecipitation, western blot). The class given is cell-based. Particulars: serum-starved HUVEC, 300 μg/ml; 24 h. As for the experimental part:
as §1
Immunoprecipitation and immunoblotting procedures. After treatment, cells were washed once with phosphate-buffered saline (PBS) containing 1 mM sodium orthovanadate and were incubated in the same medium for 1 h at 4° C. The cells were solubilized on ice in lysis buffer (150 mM NaCl, 10 mM Tris-HCl, pH 7.4, 1 mM EDTA, 1 mM EGTA, 0.5% Nonidet P-40, 1% Triton X-100) containing 1 mM sodium orthovanadate. The cells were then scraped from the culture dishes and the resulting lysates were clarified by centrifugation at 10,000 g for 10 min. Protein concentrations were determined using the micro bicinchoninic acid method. For immunoprecipitation studies, lysates were clarified by a 1 h incubation at 4° C. with a mixture of Protein A/Protein G Sepharose beads. After removal of the Sepharose beads by low-speed centrifugation, identical amounts of protein (200 μg) from each sample were transferred to fresh tubes and incubated in lysis buffer overnight at 4° C. in the presence of 2 μg/ml of specific antibodies. […]
The multifunctionality of VEGF at the cellular level results from its ability to initiate a diverse, complex and integrated network of signaling pathways via its major receptor, VEGFR-2. […] After each treatment, equal amounts of protein were immunoprecipitated with anti-VEGFR-2 polyclonal antibodies and analysed by Western blotting.

The subject of a further test is tumor growth. Particulars: animals, previous results; cited from earlier work.
The subject of test [2] is ERK. The test can be described thus: Intrinsic effect on ERK phosphorylation (western blot). Particulars: MAPK inhibitor added with PCK3145 derivative. It counts as cell-based. As to the method: In order to investigate the potential intracellular pathways triggered by the PCK3145 derivative, a gene-reporter assay using the SEAP (Secreted Alkaline Phosphatase) Mercury Profiling Kit (CLONTECH) was performed in glioma cells (U-87). This assay enables the monitoring of transcription factors that are triggered by a particular experimental condition by assaying the alkaline phosphatase activity in the extracellular media. […] The induction of the MAPK pathway by the PCK3145 derivative is further confirmed by the rapid and transient induction of ERK phosphorylation between 5-10 minutes (FIG. 8B) and is shown to be dose-dependent (FIG. 8C). Finally, the effects of the PCK3145 derivative were also compared to those of a scrambled peptide.

Test [3] deals with ERK. The following applies: cited from earlier work.
Another test relates to tumor cells. Particulars: cited from earlier work.
In the next test the test system is skeletal metastasis. The following applies: cited from earlier work.

T1 sequence (P35968 20-1356): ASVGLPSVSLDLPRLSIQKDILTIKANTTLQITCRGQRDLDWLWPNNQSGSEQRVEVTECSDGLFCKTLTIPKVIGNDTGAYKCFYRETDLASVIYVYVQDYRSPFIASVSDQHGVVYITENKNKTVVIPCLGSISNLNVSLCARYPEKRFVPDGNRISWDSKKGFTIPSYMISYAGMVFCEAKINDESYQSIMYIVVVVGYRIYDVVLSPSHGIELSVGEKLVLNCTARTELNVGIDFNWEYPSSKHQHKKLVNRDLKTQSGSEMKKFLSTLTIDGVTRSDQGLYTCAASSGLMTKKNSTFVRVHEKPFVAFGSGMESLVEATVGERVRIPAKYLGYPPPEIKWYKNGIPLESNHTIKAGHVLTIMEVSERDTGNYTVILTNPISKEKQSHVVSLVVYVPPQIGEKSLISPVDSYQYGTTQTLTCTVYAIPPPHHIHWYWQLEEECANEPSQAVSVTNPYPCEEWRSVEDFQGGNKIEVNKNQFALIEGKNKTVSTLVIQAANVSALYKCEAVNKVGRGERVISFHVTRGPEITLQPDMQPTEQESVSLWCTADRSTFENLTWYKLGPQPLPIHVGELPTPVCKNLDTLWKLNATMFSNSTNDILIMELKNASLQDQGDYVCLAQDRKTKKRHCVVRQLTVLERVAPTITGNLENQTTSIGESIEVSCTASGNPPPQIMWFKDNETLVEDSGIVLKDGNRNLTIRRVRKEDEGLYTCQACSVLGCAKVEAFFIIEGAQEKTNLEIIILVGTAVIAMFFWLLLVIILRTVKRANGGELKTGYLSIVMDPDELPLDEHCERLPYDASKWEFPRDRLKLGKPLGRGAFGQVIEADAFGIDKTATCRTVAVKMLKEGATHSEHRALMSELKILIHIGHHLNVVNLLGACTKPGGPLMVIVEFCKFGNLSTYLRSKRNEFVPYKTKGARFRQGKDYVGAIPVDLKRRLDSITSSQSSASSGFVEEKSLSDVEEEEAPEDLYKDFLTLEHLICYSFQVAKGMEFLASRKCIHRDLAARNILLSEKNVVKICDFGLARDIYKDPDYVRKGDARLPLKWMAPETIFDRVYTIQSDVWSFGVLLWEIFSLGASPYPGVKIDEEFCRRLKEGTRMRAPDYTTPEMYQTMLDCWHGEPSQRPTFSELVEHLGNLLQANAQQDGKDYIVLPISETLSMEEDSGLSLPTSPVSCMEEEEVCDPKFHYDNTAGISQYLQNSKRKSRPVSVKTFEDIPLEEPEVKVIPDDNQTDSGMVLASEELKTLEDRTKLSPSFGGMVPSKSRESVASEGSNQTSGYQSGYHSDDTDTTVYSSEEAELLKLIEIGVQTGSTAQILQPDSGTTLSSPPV

As to “Thr-Cys(Acm)-Glu-Asn-Cys(Acm)-Thr-Glu-Thr-Gln-Trp-Cys(Acm)-Glu-Thr-Asp-Tyr (TC(Acm)ENC(Acm)TETQWC(Acm)ETDY) [scrambled peptide, negative control, reference compound]”, the “ERK phosphorylation induced by VEGF” value in the test with ERK [1] is recorded as “lack of effect”. For the same molecule, in the test with VEGFR-2, the “phosphorylation of VEGFR-2 induced by VEGF” value is “lack of effect”.
As to “EWQTDNCETCTCYET (cysteine pairing not given here) [PCK3145]”, the tumor growth entry with tumor growth was “tumor growth inhibition”.
With `COc1cccc(-c2cc(=O)c3ccccc3o2)c1N` [PD98059, reference compound], in the test with ERK [2], the “effect on induction of ERK phosphorylation by the PCK3145 derivative” value is listed as “antagonized”. The “ERK phosphorylation (pharmacological inhibitor, documented)” value in the test with ERK [3] is “documented pharmacological inhibitor of ERK phosphorylation”.

B1: Ser Cys Tyr Phe Ile Pro Asn Glu Gly Val Pro Gly Asp Ser Thr Arg Lys Cys Met Asp Leu Lys Gly Asn Lys His Pro Ile Asn Ser Glu Trp Gln Thr Asp Asn Cys Glu Thr Cys Thr Cys Tyr Glu Thr Glu Ile Ser Cys Cys … (protein, listed as Homo sapiens)
chain: SCYFIPNEGVPGDSTRKCMDLKGNKHPINSEWQTDNCETCTCYETEISCCTLVSTPVGYDKDNCQRIFKKEDCKYIVVEKKDPKKTCSVSEWII
notes: Prostate secretory protein, wild type
Turning to B1, in the test on tumor cells, the “growth of tumor cells” value is given as “inhibits growth”. In the test on skeletal metastasis (animal modeling prostate cancer), the calcium levels entry was “reduction in calcium levels”. Further, the “development of skeletal metastasis” value in the test on skeletal metastasis (in vivo) was “reduces the development of skeletal metastasis”.
